Patent publication US20210246128A1, “BICYCLE TOPOISOMERASE I INHIBITING COMPOUNDS, PROCESS FOR PREPARATION AND USE THEREOF” (Council of Scientific & Industrial Research, priority 2018, published 2021)
Converted amounts (≈) assume the structure as drawn. Like-named read-outs stand apart in the source and are kept apart here. One block for each compound: values may come before it.

How the values were obtained:
calf thymus (CT) DNA = assay: Ethidium bromide (EtBr) displacement assay; type: binding; details: 1 μM EtBr, 5 nM CT DNA, 0-200 μM compound
[1] = molecular target: T1, recombinant human TopI (HTopI) (Homo sapiens, UniProt P11387); assay: Gel based plasmid DNA relaxation assay with recombinant TopI (in vitro); type: biochemical; details: recombinant human TopI; for IC50: plasmid DNA relaxation
T1 sequence (P11387 1-765): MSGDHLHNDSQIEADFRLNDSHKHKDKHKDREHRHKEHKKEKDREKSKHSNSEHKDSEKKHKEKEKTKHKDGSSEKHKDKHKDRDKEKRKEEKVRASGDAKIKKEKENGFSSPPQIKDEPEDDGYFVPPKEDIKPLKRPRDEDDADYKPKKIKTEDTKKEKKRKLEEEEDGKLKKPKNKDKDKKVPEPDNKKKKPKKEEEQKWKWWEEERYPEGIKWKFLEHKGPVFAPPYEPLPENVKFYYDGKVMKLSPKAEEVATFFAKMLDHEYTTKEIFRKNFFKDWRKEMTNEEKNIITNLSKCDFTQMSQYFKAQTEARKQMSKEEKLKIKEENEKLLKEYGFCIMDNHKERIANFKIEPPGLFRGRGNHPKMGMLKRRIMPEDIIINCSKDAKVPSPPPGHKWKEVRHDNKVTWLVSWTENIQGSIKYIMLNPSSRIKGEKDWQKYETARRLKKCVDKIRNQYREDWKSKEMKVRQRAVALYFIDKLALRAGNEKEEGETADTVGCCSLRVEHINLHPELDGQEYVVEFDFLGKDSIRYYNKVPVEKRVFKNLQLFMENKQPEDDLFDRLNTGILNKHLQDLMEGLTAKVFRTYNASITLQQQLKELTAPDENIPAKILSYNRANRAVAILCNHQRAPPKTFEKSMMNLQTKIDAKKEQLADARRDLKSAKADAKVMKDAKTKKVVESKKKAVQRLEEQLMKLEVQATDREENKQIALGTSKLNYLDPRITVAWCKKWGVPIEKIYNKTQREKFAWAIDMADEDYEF
Description: (§1) Human ToPI Inhibition in Plasmid DNA Relaxation Assays with Recombinant TopI (In Vitro) or MCF7 Cell Lysates (Ex Vivo)
(§2) Relaxation of supercoiled pBSSK(^+) DNA with recombinant human TopI (HTopI) at a molar ratio of 3:1 at 37° C. for 30 minutes was performed

[2] = molecular target: T2, endogenous TopI from the whole cell extracts of human breast adenocarcinoma (MCF7) cell (Homo sapiens, UniProt P11387); assay: Plasmid DNA relaxation assay with MCF7 cell lysates (ex vivo); type: biochemical; details: MCF7 cell lysates as source of TopI
T2 construct: TopI enzyme in the extract is conserved in its native structure among a plethora of other cellular proteins; endogenous in cells; host or cells: MCF7 whole cell extract
T2 sequence (P11387 1-765): T1 sequence (P11387 1-765)
Description: as §1, §2
cellular extracts were utilized as a source of TopI (ex vivo) in plasmid DNA relaxation assays. TopI enzyme in the extract is conserved in its native structure among a plethora of other cellular proteins.

[3] = Lipophilicity assay (octanol/buffer Log D); details: n-octanol/sodium phosphate buffer, pH 7.4
Description: 1.56 g NaH2PO4.2H2O was dissolved in 0.5 L water in a 1 L beaker. After adjusting pH to 7.4 using NaOH solution, the volume was made up to 1 L. Equal volumes of sodium phosphate buffer (10 mM, pH 7.4) and n-octanol were added to a separation funnel and mixed thoroughly by shaking and inverting the funnel several times. The two layers were allowed to separate for 2 days and then dispensed in two separate glass bottles. 10 mM stock solution was prepared in 100% DMSO and stored at 4° C. 500 μL of organic phase (1-octanol) was added to each well of a 2 mL deep well plate, followed by 500 μL of buffer and 15 μL of test substance was added. The plate was vortexed for 1 hr on a plate shaker at 1200 rpm. After incubation, the samples were allowed to equilibrate for 20 min and then centrifuged at 4000 rpm for 30 min for complete phase separation and analysed by LC-UV.
Log D=Log(area of octanol/area of buffer)
Mean, SD and % CV for each set of triplicates were calculated

[4] = Caco-2 permeability (21 day culture of Caco-2 cell monolayer); type: in vitro ADME; details: human; for efflux ratio at 120 min, 10 μM: Caco-2, pH 7.4; for recovery at 120 min, 10 μM: Caco-2, pH 7.4, Caco-2; for Papp A→B at 120 min, 10 μM / Papp B→A at 120 min, 10 μM: pH 7.4, Caco-2, 10 μM; for Papp A→B at 120 min, 10 μM: read-out: Papp Apical to Basal; for Papp B→A at 120 min, 10 μM: read-out: Papp Basal to Apical
Description: 5 mL of 100 mM sodium pyruvate, 5 mL of 10× non-essential amino acids, 5 mL of penstrep were added to 100 mL of heat inactivated foetal bovine serum to 385 mL of DMEM aseptically and mixed thoroughly. One vial of Hank's balanced salt (Sigma-H1387) was dissolved in 900 mL of milli Q water; adjusted the pH to 7.4 and made up the volume to 1000 mL with the same. The solution was filter sterilized and stored at 4° C. Stock solution of test compound (10 mM) was prepared in DMSO. 10 mM stock was diluted with HBSS Buffer to a final concentration of 10 μM.
250 μL of DMEM was added to the basal compartment of 96 well multi-screen Caco-2 plate and seeded 12000 cells/well (0.16×10^6 cells/ml) in all the apical wells required and one well with only media as blank without cells, placed the Caco-2 plate in CO2 incubator at 37° C. for proliferation of cells.
On the day of assay, medium was removed and washed twice with HBSS Buffer and incubated with HBSS buffer for 30 min in an incubator and wells with TEER values >230 ohm·cm^2 were selected for the incubation. 75 μL of test compound was added to apical wells and 250 μL of HBSS buffer with 2% BSA was added to basal wells. 25 μL of basal samples was collected at 120 min and processed as stated below.
250 μL of test compound was added to basal wells and 75 μL of HBSS buffer with 2% BSA was added to apical wells. 25 μL of apical samples was collected at 120 min and processed as stated below.
Single point calibration curve in HBSS buffer with 2% BSA was used. Donor samples were diluted 1:1 with HBSS containing 2% BSA and receiver samples were diluted with 1.1 HBSS buffer and precipitated with 200 μL of acetonitrile containing internal standard and vortexed for 5 min @ 1000 rpm, centrifuged at 4000 rpm for 10 min. Finally 100 μL of supernatant was diluted with 200 μL of water and submitted for LC-MS/MS analysis.

[5] = Solubility assay (pH 7.4 pION buffer, UV); type: physicochemical; details: pH 7.4 pION buffer, aqueous buffer, kinetic from dmso stock; pH 7.4 buffer, 18 hours incubation; read-out: Avg. Solubility (μg/mL) at pH 7.4
Description: 5 μL of 20 mM DMSO stock from the stock plate was added to the reaction deep well plate containing 495 μL of pH 7.4 pION buffer (including DMSO control) respectively and the samples were mixed and incubated for 18 hours. The plate was sealed well during the incubation process. The DMSO content in the sample was <1.0%. The concentration in deep well plates was 200 μM. 4 μL of 20 mM stock (including DMSO control) was added to 996 μL of acetonitrile to prepare the working stock plate. 75 μL of working stock was added to 75 μL of blank buffer and read on spectrophotometer as reference plate at 240 nm. At the end of the incubation period, 100 μL of sample from storage plate was vacuum filtered using a filter plate. This step wets the filters and the filtrate was discarded. Another 200 μL of the sample from deep well plate was vacuum filtered in to a new filter collection plate. 75 μL of the filtrate from the filter collection plate was transferred to a UV sample plate. 75 μL of acetonitrile was added to this UV plate. The solution was mixed and the spectrum was read using the UV spectrophotometer at 240 nm. Plates were read on spectramax using SoftMax Pro software version 5.3.

Plasma stability assay = type: in vitro ADME; details: pH 7.4, 37° C., 1 μM
Description: The stock solution of 10 mM of test compound in DMSO was prepared and stored at 4° C. 25 μM stock of test compound was prepared in acetonitrile: water by diluting from 10 mM stock (i.e. 2.5 μL of 10 mM stock solution was added to 997.5 μL of acetonitrile: water (50:50). The frozen plasma was thawed at room temperature and centrifuged at 1400×RCF (relative centrifugal force) 4° C., for 15 minutes. Approximately 90% of the clear supernatant fraction was transferred to a separate tube and was used for the assay.
For 0 min samples, plasma was heat inactivated at 56° C. for 45 min. To 72 μL of heat inactivated plasma, 3 μL of 25 μM test compound was added. A 25 μL aliquot of the mixture was taken and crashed with 200 μL of acetonitrile containing internal standard and further processed along with other time points. For other time point samples, final working stock of 1 μM was prepared by diluting in plasma (i.e. 8 μL of 25 μM acetonitrile:water stock was added to 192 μL of plasma). 200 μL of plasma containing the test compound was incubated for 2 hrs at 37° C. in shaker water bath with gentle shaking. 25 μL aliquot of sample at 0, 15, 30, 60 and 120 min was precipitated immediately with 200 μL of acetonitrile containing internal standard and centrifuged at 4000×RCF, 4° C. for 20 minutes. 150 μL of supernatant was diluted with 150 μL of water and analyzed on LC-MS/MS.

Structure (SMILES): COc1cc(NS(C)(=O)=O)ccc1Nc1c2ccccc2nc2ccccc12 [m-AMSA]
- displacement of bound EtBr (DNA intercalation) (calf thymus (CT) DNA): capability to dislodge the bound fluorophore (EtBr) at 50 μM concentration

Structure (SMILES): COc1cc([C@@H]2c3cc4c(cc3[C@@H](O[C@@H]3O[C@@H]5CO[C@@H](C)O[C@H]5[C@H](O)[C@H]3O)[C@H]3COC(=O)[C@H]23)OCO4)cc(OC)c1O [etoposide]
- displacement of bound EtBr (DNA intercalation) (calf thymus (CT) DNA): unable to displace EtBr

Structure (SMILES): COc1ccc(-c2ccc3ncc(-c4nnco4)c(NCCN4CCOCC4)c3c2)cc1OC [Compound 8, 6-(3,4-dimethoxyphenyl)-N-(2-morpholinoethyl)-3-(1,3,4-oxadiazol-2-yl)quinolin-4-amine]
- melting point: 116 °C

Structure (SMILES): Cc1ccc(-c2ccc3ncc(-c4nnco4)c(NCCN4CCOCC4)c3c2)cc1[N+](=O)[O-] [Compound 10, 6-(4-methyl-3-nitrophenyl)-N-(2-morpholinoethyl)-3-(1,3,4-oxadiazol-2-yl)quinolin-4-amine]
- melting point: 222 °C

Structure (SMILES): N#Cc1ccc(-c2ccc3ncc(-c4nnco4)c(NCCN4CCOCC4)c3c2)cc1 [Compound 11, 4-(4-(2-morpholinoethylamino)-3-(1,3,4-oxadiazol-2-yl)quinolin-6-yl)benzonitrile]
- melting point: 190 °C

Further lines, results first:

- IC50 [1]: 1050 nM
- melting point: 96 °C
- IC50 [2]: 4110 nM
Structure (SMILES): COc1cccc(-c2ccc3ncc(-c4nnco4)c(NCCCn4ccnc4)c3c2)c1 [Compound 82, N-(3-(1H-Imidazol-1-yl)propyl)-6-(3-methoxyphenyl)-3-(1,3,4-oxadiazol-2-yl)quinolin-4-amine]

- logD [3]: 2.79
- efflux ratio at 120 min, 10 μM [4]: 4.01
- recovery at 120 min, 10 μM ([4]; read-out: A to B % Recovery): 83.9%
- recovery at 120 min, 10 μM ([4]; read-out: B to A % Recovery): 92%
- Papp A→B at 120 min, 10 μM [4]: 7.89 ×10⁻⁶ cm/s
- Papp B→A at 120 min, 10 μM [4]: 31.5 ×10⁻⁶ cm/s
- IC50 [1]: 17 nM
- solubility at 18 h [5]: 27.9 µg/mL (≈ 65.4 µM)
- Mean % remaining at 2 hrs in human Plasma (Plasma stability assay): 102.28%
- IC50 [2]: 625 nM
Structure (SMILES): COc1ccc(-c2ccc3ncc(-c4nnco4)c(NCCCn4ccnc4)c3c2)cn1 [Compound 33, N-(3-(1H-imidazol-1-yl)propyl)-6-(6-methoxypyridin-3-yl)-3-(1,3,4-oxadiazol-2-yl)quinolin-4-amine]

- inhibition at 10 µM ([1]; at 10 μM, read-out: In vitro inhibition at 10 μM): 45%
- melting point: 156 °C
Structure (SMILES): COc1ccc(-c2ccc3ncc(-c4nnco4)c(NCCN4CCOCC4)c3c2)cc1 [Compound 9, 6-(4-methoxyphenyl)-N-(2-morpholinoethyl)-3-(1,3,4-oxadiazol-2-yl)quinolin-4-amine]

- logD [3]: 3.54
- efflux ratio at 120 min, 10 μM [4]: 40
- recovery at 120 min, 10 μM ([4]; read-out: A to B % Recovery): 84.8%
- recovery at 120 min, 10 μM ([4]; read-out: B to A % Recovery): 74.2%
- Papp A→B at 120 min, 10 μM [4]: 0.95 ×10⁻⁶ cm/s
- Papp B→A at 120 min, 10 μM [4]: 38.3 ×10⁻⁶ cm/s
- IC50 [1]: 397 nM
- solubility at 18 h [5]: 44 µg/mL (≈ 111 µM)
- Mean % remaining at 2 hrs in human Plasma (Plasma stability assay): 14.62%
- IC50 [2]: 1250 nM
Structure (SMILES): c1cncc(-c2ccc3ncc(-c4nnco4)c(NCCCn4ccnc4)c3c2)c1 [Compound 30, N-(3-(1H-imidazol-1-yl)propyl)-3-(1,3,4-oxadiazol-2-yl)-6-(pyridin-3-yl)quinolin-4-amine]
